# In paper PMC5465257, “Evaluation of JNJ-54717793 a Novel Brain Penetrant Selective Orexin 1 Receptor Antagonist in Two Rat Models of Panic Attack Provocation” (Frontiers in Pharmacology, 2017):
# Test system: C57Bl6 OX2R knockout (KO) mice
# Assay: Sleep recording (EEG/EMG) in OX2R knockout mice
# Assay type: in vivo, mouse
# Procedure: Sleep experiments were conducted in male Sprague-Dawley rats (350–450 g, Harlan Laboratories, Livermore, CA, United States) and in male C57Bl6 OX2R knockout (KO) and corresponding wild-type mice (30–35 g, Charles River Laboratories, San Diego, CA, United States) as described previously ([Dugovic et al., 2009]). Animals were chronically implanted with telemetric devices (Data Sciences International, St. Paul, MN, United States) for the recording of electroencephalogram (EEG) and electromyogram (EMG) signals. Polysomnographic waveforms were analyzed per 10-s epoch and classified as wake, non-rapid eye movement (NREM) or REM sleep by using the computer software program SleepSign (Kissei Comtec, Nagano, Japan). For each experiment, EEG and EMG signals were recorded for up to 6 h after administration of the tested compounds. Analysis of sleep parameters included latency to NREM sleep (defined as the time interval to the first six consecutive NREM epochs) and REM sleep (the first two consecutive REM epochs post-treatment), and the duration of NREM and REM.
# Results were averaged and expressed as mean ± SEM in defined time intervals. To determine whether differences were significant at a given interval, either paired Student’s t-test or two-way analysis of variance (ANOVA) (interaction time × treatment), repeated measures followed by Bonferroni post hoc test was performed.
# In the present study, the in vivo functional target engagement was investigated in a model of permanent inhibition of OX2R, and the effects of JNJ-5471773 on sleep-wake states were examined in mice lacking the OX2R relative to their corresponding wild-type mice. […] NREM sleep latency and duration were not affected in both genotypes (not shown).
smiles,measurement,setting,value
"O=C(c1cccc(F)c1-c1ncccn1)N1[C@@H]2CC[C@H]1[C@H](Nc1cnc(C(F)(F)F)cn1)C2 [JNJ-54717793, (1S,2R,4R)-7-([(3-fluoro-2-pyrimidin-2-ylphenyl)carbonyl]-N-[5-(trifluoromethyl)pyrazin-2-yl]-7-azabicyclo[2.2.1]heptan-2-amine)]",NREM sleep latency and duration,30 mg/kg oral (not shown),not affected
same,time spent in REM sleep,"30 mg/kg oral, first 6 h post-treatment, versus vehicle",prolonged
same,latency for REM sleep,"30 mg/kg oral, versus vehicle",significantly reduced
